Assay results taken from patent US12102063B2 (SYNEXIS LLC, priority 2017, dated 2024).
Read-outs that look alike come from different tables or passages of the source.

Key:
chicks = test system: chicks
Experimental: Hatching eggs are obtained from a breeder farm and the eggs are subjected to standard egg cleaning and preparation procedures. Hatched chicks are collected and prepared according to standard procedures (separation of eggshells and unhatched eggs, counted, etc.). Chicks are graded according to established methods. See van de Ven et al., “Significance of chick quality score in broiler production,” Animal 6(10):1677-1683; Boerjan, “Programs for single stage incubation and chick quality,” Avian Poultry Biology Reviews 13:237-238 (2002); Tona et al, “Effects of egg storage time on spread of hatch, chick quality and chick juvenile growth,” Poultry Science 82:736-741 (2003).
As indicated, certain studies were performed at Western Hatchery in Abbotsford, British Columbia, Canada (“Western”), under the supervision of the inventors and assignee. Approximately 4 million eggs per month are processed through the hatchery.
The egg room is contiguous to the loading and receiving area of the facility and is exposed to the outside during deliveries for up to 2 to 3 hours daily. […] In addition to the incoming eggs, the egg room includes excess shipping boxes and pallets.
In June 2016, the egg room and facilities are modified to add a vestibule to the loading dock with plastic curtains and upgrading the HVAC system to provide a third supply duct. […] The use of the egg room is further modified to remove unnecessary equipment including, but not limited to, pallets, cardboard boxes, and crates.
Setter incubators are set to industry standard conditions: temperature between 37° C. and 38° C. and relative humidity between 40% and 70%.
FIG. 6 presents the percent hatching of first quality chicks.

[1] = test system: A. brasiliensis ATCC 16404
Experimental: 24 and 48 hour test cultures of S. aureus, as well as all A. brasiliensis and C. difficile are prepared with 0.1% Triton X-100. A 6 hour test culture of S. aureus is prepared with 5.0% Petal Bovine Serum and no Triton. Carriers (slides) are inoculated, in duplicate per test microorganism per condition, at a target concentration of 1×10^6 CPU/Carrier. Inoculated carriers are allowed to dry at ambient temperatures, and are then placed in respective conditions to endure contact times. Carriers for S. aureus endured contact times of 6, 24, and 48 hours. Carriers for A. brasiliensis endured contact times of 12, 24, and 48 hours. […] After respective contact times, carriers are harvested in 10.0 mL of D/E Broth, vortex mixed, diluted, and plated on the appropriate growth media for each microorganism. Environmental conditions are monitored using the Drager Rohrchen, and Drager Polytron methods described in Example 1. (Note: The limit of detection for this assay is 5.0 CPU. Samples with no detectable colonies are listed as <5.00E+OO in the table).

[2] = test system: bacteria on commercial hatching eggs; details: DHP about 0.1 ppm, P=0.05
Experimental: As a control, sixty (60) commercial eggs are placed into a biosafety cabinet with the window closed. […] Sixty (60) commercial hatching eggs (test eggs) are placed in the room and both the control and test eggs are sampled, 10 eggs each, four times over the course of five (5) days at 0 hours, 24 hours, 72 hours, and 120 hours.
For sampling, individual eggs are placed in Whirl-Pak bags containing 10 milliliters (ml) of tryptic soy broth and manually rubbed in bag for 1 minute each. The washed eggs are discarded. One (1) ml from each sample is transferred to a deep well plate in triplicate and 10 fold serial dilutions performed with tryptic soy broth to 10−^11 dilution. The deep well plates are incubated for 24 hours at 37° C. After incubation, 5 microliters (5 μl) of each well is stamped onto a 96-well plate containing either tryptic soy agar (TSA) or MacConkey (Macx) agar. TSA agar is a non-selective, general purpose media. Macx agar is a selective, differential culture media for Gram-negative enteric bacilli. The agar plates are incubated 24 hours at 37° C. and then scored for bacterial growth.
Bacterial growth is scored using a Most Probable Number (MPN) calculation.

broilers = test system: broilers
Text: The chicks hatched according to the methods of Examples 2 and 3 are shipped to a broiler facility and raised to maturity. No additional changes to grow-out methods are made. A total of about 4 million eggs are set per month and the saleable chicks are sent to the grow-out facility. […] The wholesale price of a broiler is currently estimated at $0.85 per pound. […] See the nationalchickencouncil.org available on the web.

bacteria = details: end of test period (30 days), three locations
Experimental: In addition, bacterial contamination in the egg room is assessed by placing blood agar plates at three locations in the room (East, North, and West) at 0, 7, and 30 days, and bacterial growth is assessed after 24 hours.

[3] = test system: C. difficile (endospores) ATCC 43598
Total bacteria = details: hatchery after DHP treatment
Text: (§1) Hatcheries and chick production facilities are subject to heavy bacterial loads that are difficult to control. In addition to the animals themselves, there is a significant contamination of the facilities from the outside.

Other blue green = details: hatchery after DHP treatment
Text: as §1

Influenza A (H1N1) = test system: Influenza A (H1N1)
Experimental: Glass slides (1″×3″) are ethanol-sanitized and autoclaved prior to testing. The slides (carriers) are placed into sterile plastic petri dishes until use. Aliquots (0.010 ml) of diluted stock Influenza A (H1N1) are aseptically spread over a 1″×1″ square area of the carrier slide to prepare a virus film.
Virus Control carriers are placed into an adjacent modular room with the lids removed. One additional glass slide (with no virus film) is also placed into each testing chamber to perform cytotoxicity and neutralization validation controls. Upon closure of the respective study contact times (T=60 min and T=120 min), duplicate carriers are removed from each testing chamber. Duplicate carriers are also removed from the control modular room at each time point. Duplicate time zero carriers are harvested and enumerated promptly by eluting the films with 2 ml of influenza Infection Medium. Serial dilutions (1:10) are performed and dilutions 10−^1 to 10−^5 are plated in quadruplicate onto Madin-Darby Canine Kidney (MDCK) cell monolayers prepared to suitable confluency. Cell culture assay trays are incubated at 35° C. on an orbital rotator (60 rotations/minute) for 60 minutes to facilitate viral-host adsorption. Trays are removed from incubation, and Influenza infection Media is pipetted into each well (−1.0 ml). The trays are incubated for 7 days. The assay trays are observed regularly for the presence of cytotoxicity, viral cytopathic effects, and contamination. At the end of 7 days, plates are scored and the Spearman-Karber Method is used to compute viral titers and levels of cytotoxicity.

Aspergillus fumigatus = details: hatchery after DHP treatment
[4] = second contact time (48 hours), Hood (Treated)
[5] = second contact time (48 hours), Room (Treated)
[6] = Modular Room, 120 minutes contact

Compound: OO [DHP, dry hydrogen peroxide]
- percent hatching of first quality chicks (chicks; after installation of DHP to setter incubator environment, about 0.5 ppm in room): 83%
- After Modification Cull Rate(%), Average (chicks; average of months): 1.65%
- After Modification First Quality Chick (% Hatched), Average (chicks; average of months): 80.82%
- additional birds available for shipping to the grow-out facility (chicks; egg room DHP): about 4,000 birds
- cull rate lower than before DHP modification (chicks; egg room DHP): at least 1%
- Average CFU/Carrier ([1]; 12 Hours, Hood (Treated)): 2.18E+06 CFU/Carrier
- Log Reduction compared to Control ([1]; 12 Hours, Hood (Treated)): 0.02 Log
- Percent Reduction compared to Control ([1]; 12 Hours, Hood (Treated)): 4.40%
- Average CFU/Carrier ([1]; 12 Hours, Room (Treated)): 3.10E+06 CFU/Carrier
- Log Reduction compared to Control ([1]; 12 Hours, Room (Treated)): None
- Percent Reduction compared to Control ([1]; 12 Hours, Room (Treated)): None
- Average CFU/Carrier ([1]; 24 Hours, Hood (Treated)): 9.75E+05 CFU/Carrier
- Log Reduction compared to Control ([1]; 24 Hours, Hood (Treated)): 0.29 Log
- Percent Reduction compared to Control ([1]; 24 Hours, Hood (Treated)): 48.68%
- Average CFU/Carrier ([1]; 24 Hours, Room (Treated)): 1.43E+06 CFU/Carrier
- Log Reduction compared to Control ([1]; 24 Hours, Room (Treated)): 0.12 Log
- Percent Reduction compared to Control ([1]; 24 Hours, Room (Treated)): 25.00%
- Replicate CFU/Carrier ([1]; 24 Hours, Room (Treated)): 1.75E+06 CFU/Carrier
- Average CFU/Carrier ([1]; 48 Hours, Hood (Treated)): 6.75E+05 CFU/Carrier
- Log Reduction compared to Control ([1]; 48 Hours, Hood (Treated)): 0.28 Log
- Percent Reduction compared to Control ([1]; 48 Hours, Hood (Treated)): 47.06%
- Average CFU/Carrier ([1]; 48 Hours, Room (Treated)): 1.70E+06 CFU/Carrier
- Log Reduction compared to Control ([1]; 48 Hours, Room (Treated)): None
- Percent Reduction compared to Control ([1]; 48 Hours, Room (Treated)): None
- number of bacteria growing on TSA ([2]; after 72 hours): significantly reduced
- number of bacteria growing on TSA ([2]; after 120 hours): significantly reduced
- Mortality Rate (broilers; After DHP, grow-out facility): 2.2%
- Net increase(# Chicks) (broilers; After DHP, per 4,000,000 eggs set): 62,000
- Broilers raised (broilers; After DHP, per month): 3,161,678
- reduction of mortality at the grow-out facility (broilers; chicks from DHP treated eggs): about 7.8%
- number of bacterial colonies on the blood agar plates, total (bacteria): about 30
- Average CFU/Carrier ([3]; 24 Hours, Hood (Treated)): 2.75E+06 CFU/Carrier
- Log Reduction compared to Control ([3]; 24 Hours, Hood (Treated)): None
- Percent Reduction compared to Control ([3]; 24 Hours, Hood (Treated)): None
- Average CFU/Carrier ([3]; 24 Hours, Room (Treated)): 1.53E+06 CFU/Carrier
- Log Reduction compared to Control ([3]; 24 Hours, Room (Treated)): 0.07 Log
- Percent Reduction compared to Control ([3]; 24 Hours, Room (Treated)): 13.96%
- Average CFU/Carrier ([3]; 72 Hours, Hood (Treated)): 1.80E+06 CFU/Carrier
- Log Reduction compared to Control ([3]; 72 Hours, Hood (Treated)): 0.31 Log
- Percent Reduction compared to Control ([3]; 72 Hours, Hood (Treated)): 51.02%
- Average CFU/Carrier ([3]; 72 Hours, Room (Treated)): 3.35E+06 CFU/Carrier
- Log Reduction compared to Control ([3]; 72 Hours, Room (Treated)): 0.04 Log
- Percent Reduction compared to Control ([3]; 72 Hours, Room (Treated)): 8.84%
- Average CFU/Carrier [3, 4]: 3.10E+06 CFU/Carrier
- Log Reduction compared to Control [3, 4]: 0.24 Log
- Percent Reduction compared to Control [3, 4]: 42.06%
- Average CFU/Carrier [3, 5]: 3.53E+06 CFU/Carrier
- Log Reduction compared to Control [3, 5]: 0.18 Log
- Percent Reduction compared to Control [3, 5]: 34.11%
- Reduction (Total bacteria): over 90%
- Post (Other blue green): 56
- Log10 (Influenza A (H1N1); Hood Chamber, 60 minutes contact): >=2.62 Log10
- Log10 (Influenza A (H1N1); Hood Chamber, 120 minutes contact): >=1.87 Log10
- % Reduction (Influenza A (H1N1); Modular Room, 60 minutes contact): 87%
- Log10 (Influenza A (H1N1); Modular Room, 60 minutes contact, DHP 0.6-1.0 ppm): 0.87 Log10
- % Reduction (Influenza A (H1N1); [6]): 76%
- Log10 (Influenza A (H1N1); [6]): 0.62 Log10
- Post (Aspergillus fumigatus): 1
